Tests used:
U87 = assay: MTT assay; type: cell-based, human; settings: Homo sapiens, U-87 MG, 24-36 hours
Protocol: (§1) The antiproliferative activity of […] and the control mono-THF containing compounds 8.2, 8.3, and 8.4 was examined against a panel of 5 different human tumor cell lines using standard MTT (3-[4,5-dimethylthiazol-2-yl]-2,5-diphenyl tetrazolium bromide) assays^18 (Boehringer Mannheim Corp., Indianapolis, Ind.).
(§2) Briefly, exponentially growing brain tumor cells were seeded into a 96-well plate at a density of 2.5×10^4 cells/well and incubated for 36 hours at 37° C. prior to drug exposure. On the day of treatment, culture medium was carefully aspirated from the wells and replaced with fresh medium containing the test or control compounds at concentrations ranging from 0.1 to 250 μM. Triplicate wells were used for each treatment. The cells were incubated with the various compounds for 24-36 hours at 37° C. in a humidified 5% CO2 atmosphere. To each well, 10 μl of MTT (0.5 mg/ml final concentration) was added and the plates were incubated at 37° C. for 4 hours to allow MTT to form formazan crystals by reacting with metabolically active cells . The formazan crystals were solubilized overnight at 37° C. in a solution containing 10% SDS in 0.01 M HCl. The absorbence of each well was measured in a microplate reader (Labsystems) at 540 nm and a reference wavelength of 690 nm. To translate the OD 540 values into the number of live cells in each well, the OD540 values were compared to those on standard OD540-versus-cell number curves generated for each cell line. The percent survival was calculated using the formula: % survival=Live cell number[test]×100/Live cell number[control].
(§3) IC50 values were calculated by non-linear regression analysis using an Graphpad Prism software version 2.0 (Graphpad Software, Inc., San Diego, Calif.).
(§4) The following human cancer cell lines were used in the present study: BT-20, breast cancer; MDA-MB-231, breast cancer; PC3, prostate cancer; U87 and U373, glioblastoma; NALM-6, B-lineage acute lymphoblastic leukemia. These cell lines were obtained from American Type Culture Collection (Manassas, Va.) and maintained as continuous cell lines in Dulbecco's modified Eagles's medium supplemented with 10% fetal bovine serum and antibiotics.

MDA-MB-231 = assay: MTT assay; type: cell-based, human; settings: Homo sapiens, 24-36 hours
Protocol: as §1, §2, §3, §4

NALM-6 = assay: MTT assay; type: cell-based, human; settings: Homo sapiens, 24-36 hours
Protocol: as §1, §2, §3, §4

PC-3 = assay: MTT assay; type: cell-based, human; settings: Homo sapiens, 24-36 hours
Protocol: as §1, §2, §3, §4

SQ20B = assay: MTT assay; type: cell-based, human; settings: Homo sapiens, 24-36 hours
Protocol: as §1, §2, §3

[1] = test system: zebrafish (ZF) (Danio rerio) embryos; assay: Zebrafish embryo model, cell division and development; type: in vivo
Protocol: ZF eggs were removed from their chorions by mild digestion in 1% Trypsin-EDTA (Sigma) for 10 minutes at 28.5° C. (Standard temperature—ST), washed three times in “egg water”^15-16 and twice in “embryonic medium” (EM)^15-16. The dechorionated two-cell stage cleaving eggs/embryos were transferred to the 24-well plastic cell culture plates (Costar, City, State) filled with EM or Hank's Balanced Salt Saline (HBSS, Gibco, City, State). Dechorionated embryos (10-12 per well) were exposed to the drugs at a constant ST for 0.5-24 hours. The final volume of the media in each well was 500 μL. All reference as well as test compounds were used at concentrations ranging from 10 μM to 4 mM. The title compounds were dissolved in DMSO and then diluted serially with the incubation medium. The final concentration of DMSO in the wells was 1.2% (with the exception of the etoposide treatment where it was 3%). The sham-treated control embryos were incubated in EM or HBSS in the presence of 1.2% (or 3%) DMSO.
Observations of cell division and development of the ZF embryos were carried out using a SMZ-10A stereo microscope (Nicon, City, State), once every 30 minutes within the first 3 hours of incubation and at 6, 12 and 24 hours, as well. […] The stereo microscope was fitted with a specially designed transparent heating tray in order to keep embryos at ST during observations. Pictures of the embryos were taken with a H-III Photomicrographic System (Nicon) using Ektachrome 64X film (Kodak, Rochester, N.Y.).

Bovine brain tubulin = target: T1, Bovine brain tubulin (Bos taurus, UniProt P81947+Q6B856); assay: Tubulin turbidity assay (GTP-induced tubulin polymerization); type: biochemical; settings: 1 mg/ml tubulin, 1 mM GTP, 37° C., OD 350 nm
T1 construct: purchased Sigma, St. Louis, Mo; host or cells: bovine brain (tissue-purified)
T1 sequence (P81947 whole entry): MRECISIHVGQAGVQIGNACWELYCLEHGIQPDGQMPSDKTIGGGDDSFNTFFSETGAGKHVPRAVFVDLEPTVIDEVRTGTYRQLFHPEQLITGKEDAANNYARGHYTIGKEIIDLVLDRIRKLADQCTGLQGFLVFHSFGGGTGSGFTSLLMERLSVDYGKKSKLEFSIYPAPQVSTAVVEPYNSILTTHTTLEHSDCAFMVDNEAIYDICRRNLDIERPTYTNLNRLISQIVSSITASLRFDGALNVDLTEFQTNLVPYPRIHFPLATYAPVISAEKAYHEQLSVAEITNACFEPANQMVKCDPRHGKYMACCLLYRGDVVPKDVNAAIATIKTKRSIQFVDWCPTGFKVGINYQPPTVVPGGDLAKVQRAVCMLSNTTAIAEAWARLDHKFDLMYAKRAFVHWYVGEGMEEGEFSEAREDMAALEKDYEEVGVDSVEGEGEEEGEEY
T1 sequence (Q6B856 whole entry): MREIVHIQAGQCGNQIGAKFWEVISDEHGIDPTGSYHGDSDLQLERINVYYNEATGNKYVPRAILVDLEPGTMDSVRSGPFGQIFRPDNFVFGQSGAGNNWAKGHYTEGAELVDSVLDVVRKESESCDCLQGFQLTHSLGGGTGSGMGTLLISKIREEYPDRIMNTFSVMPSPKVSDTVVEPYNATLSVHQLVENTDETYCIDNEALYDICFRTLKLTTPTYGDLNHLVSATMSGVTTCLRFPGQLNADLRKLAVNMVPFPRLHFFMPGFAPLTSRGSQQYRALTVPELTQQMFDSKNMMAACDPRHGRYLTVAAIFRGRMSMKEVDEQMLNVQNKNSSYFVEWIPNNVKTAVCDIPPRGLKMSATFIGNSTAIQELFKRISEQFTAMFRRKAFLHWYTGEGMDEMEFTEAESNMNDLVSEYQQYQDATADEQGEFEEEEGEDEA
Protocol: Bovine brain tubulin (Sigma, St. Louis, Mo.) was used in standard turbidity assays to test the effects of compounds COBRA-1 and COBRA-2 as well as control compounds on GTP-induced tubulin polymerization. Compounds (in 1% DMSO) were added to tubulin (1 mg/ml, 0.1M MES, 1 mM EGTA, 0.5 mM MgCl2, 0.1 mM EDTA, 2.5M glycerol, 1 μg/ml leupeptin, 1 μg/ml aprotinin, pH 6.5) followed by stimulation of polymerization with 1 mM GTP at 2 minutes and 1 mM taxol at 30 minutes. Optical density was measured using a Becton Dickinson UV spectrophotometer (350 nm) using a thermostated cuvette holder to keep the reaction at 37° C. Readings obtained from the spectro-photometer were standardized by subtracting the background absorbance of the compound in water from the sample reading following drug addition.
To test the latitude of the structure at the opposite end of the molecule from the long chain (head region), three new COBRA compounds were synthesized according to the schemes shown below: COBRA-3, COBRA-4, and COBRA-5. Each of these compounds was then tested for tubulin depolymerization activity, using the tubidity assay described in the Examples above.
Each of these compounds was assayed for effects on GTP-dependent tubulin polymerization, using the methods described above.

[2] = test system: BT-20 breast cancer cells; assay: Cytotoxicity by confocal microscopy (tubulin immunofluorescence); type: cell-based, human
Protocol: (§5) Cells were incubated at 37° C. for the indicated time periods with the title compounds. At the end of the incubation, cells were washed twice with PBS and fixed in 2% paraformaldehyde. The cells were permeabilized and non-specific binding sites were blocked with 2.5% BSA in PBS containing 0.1% Triton X-100 for 30 minutes. Tubulin expression was examined by immunofluorescence using a monoclonal antibody against α-tubulin (Sigma Chemical Co, St. Louis, Mo.) at a dilution of 1:1000 and an anti-mouse IgG conjugated to FITC. Cells were washed in PBS and counterstained with toto-3 (Molecular Probes Inc., Eugene, Oreg.) for 10 minutes at a dilution of 1:1000. Cells were washed again with PBS and the coverslips were mounted with Vectashield (Vector Labs, Burlingame, Calif.) and viewed with a confocal microscope (Bio-Rad MRC 1024) mounted in a Nikon Labhophot upright microscope. Digital images were saved on a Jaz disk and processed with Adobe Photoshop software (Adobe Systems, Mountain View, Calif.).
(§6) The ultrastructural changes in human breast and glioblastoma cancer cells treated with COBRA-1 or COBRA-2 were examined by confocal microscopy and by transmission electron microscopy, using methods previously reported^19.

U373 brain tumor cells = assay: as above; type: cell-based, human
Protocol: as §5, §6

IC50 (U87)	IC50 (MDA-MB-231)	IC50 (PC-3)	SMILES	IC50 (NALM-6)	IC50 (SQ20B)	further results
> 250 µM	> 250 µM	> 250 µM	OC(CSOOc1ccccc1)C1CCC(COCc2ccccc2)O1 (centres unmarked) [Compound 8.2]	> 250 µM	> 250 µM	–
–	–	–	CC(=O)O[C@H]1C(=O)[C@@]2(C)[C@H]([C@H](OC(=O)c3ccccc3)[C@]3(O)C[C@H](OC(=O)[C@H](O)[C@@H](NC(=O)c4ccccc4)c4ccccc4)C(C)=C1C3(C)C)[C@]1(OC(C)=O)CO[C@@H]1C[C@@H]2O [paclitaxel, reference compound]	–	–	effect on ZF embryos ([1]; 400 μM in EM): developmental abnormalities after 90 minutes of exposure
> 250 µM	> 250 µM	> 250 µM	OCC(O)[C@H]1CC[C@H](CO)O1 (some centres unmarked) [Compound 8.4]	> 250 µM	> 250 µM	–
–	–	–	CN(Cc1cnc2nc(N)nc(N)c2n1)c1ccc(C(=O)N[C@@H](CCC(=O)O)C(=O)O)cc1 [methotrexate, reference compound]	–	–	effect on gastrulation ([1]; 1-4 mM): failed to gastrulate; effect on cell division during cleavage and blastula stages ([1]; by 4 hours of incubation): no visible effect
–	–	–	CCCCCCCCCCCC[C@@H](O)[C@H]1CC[C@H]([C@@H](O)CO)O1 [COBRA-4]	–	–	effect on GTP-dependent tubulin polymerization (turbidity) (Bovine brain tubulin): caused partial depolymerization of tubulin and completely inhibited its polymerization in the presence of GTP
–	–	–	C=CCC[C@H](O)[C@H]1CC[C@H]([C@H](O)CCCCCCCCCCCC)O1 [COBRA-2]	–	–	effect on GTP-dependent tubulin polymerization (turbidity) (Bovine brain tubulin): caused partial depolymerization of tubulin and inhibited its polymerization in the presence of GTP; cell morphology / microtubules ([2]; BT-20, 100-200 μM): cell death with nuclear fragmentation and complete loss of microtubule formation; cell morphology / microtubules ([2]; BT-20, 24 hours (FIG. 10B)): the cells shrink and the microtubules become less organized; cell morphology / microtubules (U373 brain tumor cells; U373, 100-200 μM): cell death with nuclear fragmentation and complete loss of microtubule formation; cell morphology / microtubules (U373 brain tumor cells; U373, 24 hours (FIG. 10E)): the cells shrink and the microtubules become less organized
–	–	–	CC[C@]1(O)C[C@H]2CN(CCc3c([nH]c4ccccc34)[C@@](C(=O)OC)(c3cc4c(cc3OC)N(C=O)[C@H]3[C@@](O)(C(=O)OC)[C@H](OC(C)=O)[C@]5(CC)C=CCN6CC[C@]43[C@@H]65)C2)C1 [vincristine, reference compound]	–	–	effect on ZF embryos ([1]; 100 μM in EM or HBSS): rapid total cell division blockade, cell fusion and developmental arrest; time until two-cell stage embryos stopped cleaving ([1]; 100 μM in EM or HBSS): ≤ 15 min
> 250 µM	> 250 µM	> 250 µM	C[C@@H](O)[C@H]1CC[C@H](CO)O1 [Compound 8.3]	> 250 µM	> 250 µM	–

— patent publication US20020045764A1, “Tubulin binding compounds (COBRA)” (Parker Hughes Institute, priority 1998, published 2002)
